“And” between values parts separate entries of the source, which are not always exact repeats. Equal entries are not always repeated.
Molecular target: C-C chemokine receptor type 2 (Homo sapiens, UniProt P41597)
Experiment: Antagonist activity at human CCR2 receptor

Sequence of C-C chemokine receptor type 2 (P41597 whole entry): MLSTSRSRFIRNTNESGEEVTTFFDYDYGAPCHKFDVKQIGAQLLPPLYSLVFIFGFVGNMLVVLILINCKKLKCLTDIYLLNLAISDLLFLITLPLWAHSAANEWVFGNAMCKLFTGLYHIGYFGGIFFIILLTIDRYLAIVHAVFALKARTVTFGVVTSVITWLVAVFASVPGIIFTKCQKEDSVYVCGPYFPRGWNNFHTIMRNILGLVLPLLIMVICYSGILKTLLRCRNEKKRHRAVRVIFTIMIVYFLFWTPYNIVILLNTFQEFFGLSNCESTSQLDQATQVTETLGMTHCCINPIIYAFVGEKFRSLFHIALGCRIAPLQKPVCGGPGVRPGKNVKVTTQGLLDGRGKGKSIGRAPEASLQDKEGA

Structure (SMILES)	Ki
CCCCc1ccc(/C=C/C(=O)NCCCCCN2CCC(c3c[nH]c4ccccc34)CC2)cc1	1700 nM
O=C(/C=C/c1ccc(Br)cc1)NCCCCCN1CCC(c2c[nH]c3ccccc23)CC1	355 nM
O=C(/C=C/c1ccc(Cl)c(Cl)c1)NCCCCCN1CCC(c2c[nH]c3ccccc23)CC1	427 nM
O=C(/C=C/c1ccc(I)cc1)NCCCCCN1CCC(c2c[nH]c3ccccc23)CC1	468 nM
CC(=O)Nc1ccc(/C=C/C(=O)NCCCCCN2CCC(c3c[nH]c4ccccc34)CC2)cc1	12900 nM
O=C(NCCCCCN1CCC(c2c[nH]c3ccccc23)CC1)Nc1ccc(Cl)c(Cl)c1	1620 nM
Cc1ccc(/C=C/C(=O)NCCCCCN2CCC(c3c[nH]c4ccccc34)CC2)cc1	562 nM
O=C(NCCCCCN1CCC(c2c[nH]c3ccccc23)CC1)c1ccc(Br)cc1	7240 nM
O=C(/C=C/c1ccc(-c2ccccc2)cc1)NCCCCCN1CCC(c2c[nH]c3ccccc23)CC1	1480 nM
O=C(Cc1ccc(Cl)c(Cl)c1)NCCCCCN1CCC(c2c[nH]c3ccccc23)CC1	4470 nM
O=C(NCCCCCN1CCC(c2c[nH]c3ccccc23)CC1)c1ccc(-c2ccccc2)cc1	5500 nM
O=C(/C=C/c1ccccc1Cl)NCCCCCN1CCC(c2c[nH]c3ccccc23)CC1	4470 nM
O=C(/C=C/c1ccc(Cl)c(Cl)c1)N[C@H]1CC[C@H](CN2CCC(c3c[nH]c4ccccc34)CC2)CC1	631 nM and 646 nM
